Source: PMC11790914, “Chemogenomics for steroid hormone receptors (NR3)” (Communications Chemistry, 2025)
Values joined by “and” are separate entries in the source; they are usually repeats but may differ in a detail not shown here. Equal values may be shown once.

Key:
[1] = tested on: NR3C3 (PR); conditions: cited from earlier work
[2] = tested on: NR3C1 (GR); conditions: ref Supplementary Table 1, cited from earlier work
[3] = molecular target: T1, BRPF1 (Homo sapiens, UniProt P55201); assay: Liability panel screening by DSF: BRPF1; assay type: binding; conditions: DSF, 20 µM, n=2
T1 construct: This panel comprised ten highly ligandable kinases and bromodomains; made in house
T1 sequence (P55201 628-732 limits assumed): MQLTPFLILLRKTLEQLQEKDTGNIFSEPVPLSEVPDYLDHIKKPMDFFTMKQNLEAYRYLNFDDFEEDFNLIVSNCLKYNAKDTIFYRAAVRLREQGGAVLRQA
Method in brief: (§1)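 Recombinant protein at 2 µM in 10 mM HEPES pH 7.5 with 500 mM NaCl was mixed with SYPRO Orange (1:1000) and heated at 3 °C/min up to 85 °C. Tm was taken as the Boltzmann-fit inflection point. Shifts are ∆Tm in K from technical duplicates.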

[4] = tested on: ATF6 activity in Hela ATF6 reporter cells; assay: Endoplasmic reticulum stress assay (ATF6 Renilla luciferase reporter, tunicamycin); assay type: cell-based; conditions: 0.3 µM, single replicates n=1 to n=5
Method in brief: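 HeLa ATF6 Renilla reporter cells were pretreated 4 h with compounds in 0.1% DMSO, then stimulated with tunicamycin (100 ng/mL) for 18 h. Renilla luminescence (DualGlo) was normalized to 0.1% DMSO control; five independent experiments.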

[5] = tested on: HEK293T cells; assay: Cytotoxicity: growth-rate (change in confluence over 24 h); conditions: 0.3 µM, normalized to 0.1% DMSO control, single replicates (n=1...)
Protocol: (§2) Cells were incubated with the test compounds at the indicated concentrations solubilized with 0.1% DMSO for 24 h. Growth-rate was determined based on the change in confluence over 24 h normalized to the change in confluence of cells treated with the 0.1% DMSO control (n = 10). Metabolic activity was determined with a water-soluble tetrazolium-8 (WST-8) assay (n = 8) after 24 h treatment. Apoptotic cells were detected with a fluorogenic DNA dye coupled to the caspase-3/7 recognition sequence (DEVD) after 24 h treatment and the apoptotic cell count was normalized to 0.1% DMSO treated cells (n = 6).
(§3) HEK293T cells (German Collection of Microorganisms and Cell Culture GmbH, DSMZ; #ACC305) were cultured in DMEM high glucose, supplemented with 10% fetal calf serum (FCS), sodium pyruvate (1 mM), penicillin (100 µ/mL) and streptomycin (100 µg/mL) at 37 °C and 5% (v/v) CO2, and seeded in pre-coated (10 µg/mL collagen G solution (Merck KgaA; #L7213) for 30 min at 37 °C) 96-well plates (2 × 10^5 cells per well). After 24 h, the cells were treated with the respective NR3 CG compound candidate at the recommended concentration, bexarotene (100 µM) or doxorubicin (30 µM) as positive controls in DMEM high glucose supplemented with 0.1% FCS, penicillin (100 µ/mL), streptomycin (100 µg/mL) and 0.1% DMSO, or 0.1% DMSO alone as an untreated control. Each sample was prepared in at least four biologically independent replicates. […] Thereafter, the medium was aspirated and the cells were incubated for 3 h with 90 µL DMEM high glucose supplemented with 0.2% FCS, penicillin (100 µ/mL) and streptomycin (100 µg/mL) and additionally containing 10 µL Cell Counting Kit 8 solution (CCK-8; MedChemExpress, Monmouth Junction, New York, USA; #HY-K0301), and absorbance was measured at 1 h, 2 h and 3 h of incubation at 450 nm on a Tecan Spark Cyto to assess metabolic activity of the cells. Before drug administration, after the first medium exchange, 24 h after drug administration, and after fluorescence imaging cell confluence was assessed using the Tecan Spark Cyto, to account for changes in cell confluence due to drug administration and cell handling. Compound effects on cell confluence, apoptosis, metabolic activity and necrosis were normalized to the vehicle control of each biological replicate individually.

[6] = molecular target: T2, AURKA (Homo sapiens, UniProt O14965); assay: Liability panel screening by DSF: AURKA; assay type: binding; conditions: DSF, 20 µM, n=2
T2 construct: made in house
T2 sequence (O14965 1-403): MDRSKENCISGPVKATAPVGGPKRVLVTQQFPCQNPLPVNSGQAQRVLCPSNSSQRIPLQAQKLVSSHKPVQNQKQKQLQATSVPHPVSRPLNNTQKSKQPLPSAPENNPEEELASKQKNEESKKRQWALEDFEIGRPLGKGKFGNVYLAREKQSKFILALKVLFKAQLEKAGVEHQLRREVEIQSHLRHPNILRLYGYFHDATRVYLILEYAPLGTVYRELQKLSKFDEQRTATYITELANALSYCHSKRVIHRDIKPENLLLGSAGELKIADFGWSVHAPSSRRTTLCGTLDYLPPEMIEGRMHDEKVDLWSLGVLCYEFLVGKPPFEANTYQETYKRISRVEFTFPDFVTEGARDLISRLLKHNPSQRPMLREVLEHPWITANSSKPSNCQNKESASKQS
Method in brief: as §1

[7] = molecular target: T3, CDK2 (Homo sapiens, UniProt P24941); assay: Liability panel screening by DSF: CDK2; assay type: binding; conditions: DSF, 20 µM, n=2
T3 construct: made in house
Method in brief: as §1

[8] = known off-target outside the NR family at the recommended concentration; ref Supplementary Table 1 (superscript references); cited from earlier work
[9] = tested on: NF-κB activity in HEK293 NF-κB reporter cells; assay: NF-kB activity assay (GFP reporter, ionomycin/PMA); assay type: cell-based; conditions: n=3
Method in brief: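 HEK293 NF-κB GFP reporter cells given compound in 0.1% DMSO for 4 h, then stimulated with ionomycin 100 ng/mL plus PMA 10 ng/mL. Imaged every 90 min over 24 h; GFP-positive cell count normalized to confluence, three independent biological replicates.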

[10] = molecular target: T4, CSNK1D (Homo sapiens, UniProt P48730); assay: Liability panel screening by DSF: CSNK1D; assay type: binding; conditions: DSF, 20 µM, n=2
T4 construct: made in house
T4 sequence (P48730 whole entry, species assumed): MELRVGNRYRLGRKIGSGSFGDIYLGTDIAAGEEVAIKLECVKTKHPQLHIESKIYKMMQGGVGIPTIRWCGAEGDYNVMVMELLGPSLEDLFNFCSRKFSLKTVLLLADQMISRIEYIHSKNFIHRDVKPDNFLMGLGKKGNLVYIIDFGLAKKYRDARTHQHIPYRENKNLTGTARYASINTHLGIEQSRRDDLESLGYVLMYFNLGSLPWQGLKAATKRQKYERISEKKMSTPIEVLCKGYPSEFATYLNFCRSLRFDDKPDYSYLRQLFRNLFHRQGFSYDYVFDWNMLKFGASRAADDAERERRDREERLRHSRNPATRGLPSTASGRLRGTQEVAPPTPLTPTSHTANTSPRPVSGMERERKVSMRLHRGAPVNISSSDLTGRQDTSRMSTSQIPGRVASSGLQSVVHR
Method in brief: as §1

[11] = molecular target: T5, FGFR3 (Homo sapiens, UniProt P22607); assay: Liability panel screening by DSF: FGFR3; assay type: binding; conditions: DSF, 20 µM, n=2
T5 construct: made in house
T5 sequence (P22607 23-806, species assumed): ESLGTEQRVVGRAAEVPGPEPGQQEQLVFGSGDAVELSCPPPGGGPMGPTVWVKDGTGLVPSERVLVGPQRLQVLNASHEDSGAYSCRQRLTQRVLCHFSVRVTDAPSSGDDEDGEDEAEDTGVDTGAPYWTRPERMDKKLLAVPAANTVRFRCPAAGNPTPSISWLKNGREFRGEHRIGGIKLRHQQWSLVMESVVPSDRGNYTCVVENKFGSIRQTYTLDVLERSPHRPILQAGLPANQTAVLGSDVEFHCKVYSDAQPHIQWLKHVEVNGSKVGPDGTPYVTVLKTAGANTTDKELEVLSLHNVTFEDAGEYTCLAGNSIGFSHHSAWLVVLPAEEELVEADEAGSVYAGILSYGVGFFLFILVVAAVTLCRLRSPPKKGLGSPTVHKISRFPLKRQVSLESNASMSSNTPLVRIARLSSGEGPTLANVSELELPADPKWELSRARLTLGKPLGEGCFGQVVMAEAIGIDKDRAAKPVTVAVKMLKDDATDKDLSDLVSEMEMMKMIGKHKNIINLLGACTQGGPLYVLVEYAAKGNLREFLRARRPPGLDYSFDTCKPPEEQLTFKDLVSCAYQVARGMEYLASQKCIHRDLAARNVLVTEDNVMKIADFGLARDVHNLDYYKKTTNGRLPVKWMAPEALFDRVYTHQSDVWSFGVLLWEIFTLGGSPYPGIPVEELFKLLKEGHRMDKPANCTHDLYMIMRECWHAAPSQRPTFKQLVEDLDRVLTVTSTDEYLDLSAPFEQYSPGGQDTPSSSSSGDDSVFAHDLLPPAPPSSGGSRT
Method in brief: as §1

[12] = molecular target: T6, BRD4 (Homo sapiens, UniProt O60885); assay: Liability panel screening by DSF: BRD4; assay type: binding; conditions: DSF, 20 µM, n=2
T6 construct: This panel comprised ten highly ligandable kinases and bromodomains; made in house
Method in brief: as §1

[13] = molecular target: T7, TRIM24 (Homo sapiens, UniProt O15164); assay: Liability panel screening by DSF: TRIM24; assay type: binding; conditions: DSF, 20 µM, n=2
T7 construct: This panel comprised ten highly ligandable kinases and bromodomains; made in house
T7 sequence (O15164 899-1004 limits assumed): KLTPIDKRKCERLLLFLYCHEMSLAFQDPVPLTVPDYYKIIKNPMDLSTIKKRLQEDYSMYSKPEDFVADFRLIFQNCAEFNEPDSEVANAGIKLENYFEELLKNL
Method in brief: as §1

[14] = molecular target: T8, MAPK1 (Homo sapiens, UniProt P28482); assay: Liability panel screening by DSF: MAPK1; assay type: binding; conditions: DSF, 20 µM, n=2
T8 construct: made in house
T8 sequence (P28482 whole entry, species assumed): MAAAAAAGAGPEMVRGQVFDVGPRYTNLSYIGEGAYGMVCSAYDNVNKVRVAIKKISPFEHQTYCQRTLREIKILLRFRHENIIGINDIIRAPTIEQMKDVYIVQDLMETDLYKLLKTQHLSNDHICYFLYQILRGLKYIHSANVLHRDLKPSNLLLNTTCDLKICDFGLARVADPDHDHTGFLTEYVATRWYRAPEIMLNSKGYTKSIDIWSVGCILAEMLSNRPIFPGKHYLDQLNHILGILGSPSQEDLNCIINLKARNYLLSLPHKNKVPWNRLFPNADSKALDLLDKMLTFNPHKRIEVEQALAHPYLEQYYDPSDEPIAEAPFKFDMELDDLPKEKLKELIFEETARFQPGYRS
Method in brief: as §1

[15] = tested on: HEK293T cells; assay: Cytotoxicity: metabolic activity (WST-8 / CCK-8 assay); conditions: 0.3 µM; HEK293T, 24 h; WST-8; normalized to 0.1% DMSO; single replicates
[16] = molecular target: T9, ABL1 (Homo sapiens, UniProt P00519); assay: Liability panel screening by DSF: ABL1; assay type: binding; conditions: DSF, 20 µM, n=2
T9 construct: made in house
T9 sequence (P00519 whole entry, species assumed): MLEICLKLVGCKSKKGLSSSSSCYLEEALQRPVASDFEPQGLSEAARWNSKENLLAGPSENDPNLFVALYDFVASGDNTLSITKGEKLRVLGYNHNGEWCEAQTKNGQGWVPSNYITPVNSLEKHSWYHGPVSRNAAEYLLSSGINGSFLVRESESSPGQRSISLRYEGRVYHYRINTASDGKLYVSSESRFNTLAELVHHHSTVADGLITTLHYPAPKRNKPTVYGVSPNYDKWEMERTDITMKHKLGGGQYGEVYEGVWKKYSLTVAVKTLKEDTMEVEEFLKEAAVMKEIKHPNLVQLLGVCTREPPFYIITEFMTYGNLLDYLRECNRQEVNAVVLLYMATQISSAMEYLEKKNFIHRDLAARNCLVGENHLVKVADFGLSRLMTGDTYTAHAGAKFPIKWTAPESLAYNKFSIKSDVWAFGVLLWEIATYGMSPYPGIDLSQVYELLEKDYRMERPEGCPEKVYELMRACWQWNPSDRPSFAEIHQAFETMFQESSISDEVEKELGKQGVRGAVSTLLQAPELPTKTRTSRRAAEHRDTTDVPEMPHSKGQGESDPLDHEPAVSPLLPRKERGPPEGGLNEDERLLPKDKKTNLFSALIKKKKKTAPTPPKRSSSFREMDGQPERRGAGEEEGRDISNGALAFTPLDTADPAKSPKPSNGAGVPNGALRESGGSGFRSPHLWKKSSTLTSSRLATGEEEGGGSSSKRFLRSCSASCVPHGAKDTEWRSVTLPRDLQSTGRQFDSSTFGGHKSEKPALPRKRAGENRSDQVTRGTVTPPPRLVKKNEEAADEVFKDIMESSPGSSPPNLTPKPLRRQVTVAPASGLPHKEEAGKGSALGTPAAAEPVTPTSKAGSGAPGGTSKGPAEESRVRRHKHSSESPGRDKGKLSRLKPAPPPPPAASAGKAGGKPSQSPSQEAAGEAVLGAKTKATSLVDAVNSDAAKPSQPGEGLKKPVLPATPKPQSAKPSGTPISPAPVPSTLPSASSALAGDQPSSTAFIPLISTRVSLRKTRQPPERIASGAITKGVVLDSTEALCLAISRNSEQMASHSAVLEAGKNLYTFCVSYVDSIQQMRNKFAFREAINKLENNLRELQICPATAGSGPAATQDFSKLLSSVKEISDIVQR
Method in brief: as §1

[17] = tested on: HEK293T cells; assay: Cytotoxicity: necrosis induction (red fluorescent dye for permeable plasma membranes); assay type: cell-based; conditions: 0.3 µM, 24 h, necrotic cell count normalized to 0.1% DMSO, single replicates;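 note: compounds applied in DMEM high glucose with 0.1% FCS and 0.1% DMSO, necrotic HEK293T cells counted by red staining of cells whose plasma membranes had become permeable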
[18] = tested on: NR3C4 (AR); conditions: ref Supplementary Table 1, cited from earlier work
[19] = molecular target: T10, GSK3B (Homo sapiens, UniProt P49841); assay: Liability panel screening by DSF: GSK3B; assay type: binding; conditions: DSF, 20 µM, n=2
T10 construct: made in house
T10 sequence (P49841 whole entry, species assumed): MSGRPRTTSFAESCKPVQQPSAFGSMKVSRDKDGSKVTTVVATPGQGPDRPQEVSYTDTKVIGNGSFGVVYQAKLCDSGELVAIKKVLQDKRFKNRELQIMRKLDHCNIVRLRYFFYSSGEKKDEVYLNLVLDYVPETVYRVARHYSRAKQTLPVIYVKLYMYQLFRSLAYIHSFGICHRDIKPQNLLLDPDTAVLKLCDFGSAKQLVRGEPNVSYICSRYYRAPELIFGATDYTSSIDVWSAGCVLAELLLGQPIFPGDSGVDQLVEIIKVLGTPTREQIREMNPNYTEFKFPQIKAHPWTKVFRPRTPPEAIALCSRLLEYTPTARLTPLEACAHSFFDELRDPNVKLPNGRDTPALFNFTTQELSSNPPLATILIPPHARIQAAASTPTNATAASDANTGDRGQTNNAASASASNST

[20] = tested on: HEK293T cells; assay: Cytotoxicity: apoptosis induction (caspase-3/7 DEVD fluorogenic DNA dye); conditions: 0.3 µM; HEK293T, 24 h; apoptotic cell count normalized to 0.1% DMSO; single replicates
Protocol: as §2, §3

## Medroxyprogesterone
[1]; (lit.), ref Supplementary Table 1, read-out: Potency [nM] EC50, NR3C3 (PR)
  EC50: 0.15 ± 0.05 nM
[1]; of PGN (progesterone)
  rel. activity from literature, NR3C3 (PR): % of PGN: 80 ± 7%
[2]; (lit.), read-out: Potency [nM] EC50, NR3C1 (GR)
  EC50: 10 ± 1 nM
[2]; of dexamet./DXM
  rel. activity from literature, NR3C1 (GR): % of dexamethasone (DXM): 157 ± 22%
[3]
  Mean ΔTM BRPF1: 0.25 K
[4]
  ER stress [rel. ATF6 activity]: 0.98 and 0.97 and 1.05 and 0.94 and 0.96
[5]
  Growth rate [GR]: 0.94 and 1.01 and 1.09 and 1.40 and 1.04 (2×) and 0.87 and 1.11 and 0.76 and 1.34
[6]
  Mean ΔTM AURKA: 0.0165 K
[7]
  Mean ΔTM CDK2: -0.39 K
[8]
  Other off-target at recom. conc.: 17β-HSD2 and 17β-HSD3 and 17β-HSD1
[9]; 0.3 µM, 1,5 h
  Mean NFκB response: 2817.45 GFP+-cells/confluence ∙ 1000
[9]; 0.3 µM, 4,5 h
  Mean NFκB response: 3349.18 GFP+-cells/confluence ∙ 1000
[9]; 0.3 µM, 7,5 h
  Mean NFκB response: 6986.39 GFP+-cells/confluence ∙ 1000
[9]; 0.3 µM, 10,5 h
  Mean NFκB response: 17788.45 GFP+-cells/confluence ∙ 1000
[9]; 0.3 µM, 13,5 h
  Mean NFκB response: 26308.75 GFP+-cells/confluence ∙ 1000
[9]; 0.3 µM, 16,6 h
  Mean NFκB response: 32691.58 GFP+-cells/confluence ∙ 1000
[9]; 0.3 µM, 19,5 h
  Mean NFκB response: 37046.67 GFP+-cells/confluence ∙ 1000
[9]; 0.3 µM, 22,5 h
  Mean NFκB response: 41020.00 GFP+-cells/confluence ∙ 1000
[9]; 0.3 µM, 3 h
  Mean NFκB response: 2918.53 GFP+-cells/confluence ∙ 1000
[9]; 0.3 µM, 6 h
  Mean NFκB response: 4035.46 GFP+-cells/confluence ∙ 1000
[9]; 0.3 µM, 9 h
  Mean NFκB response: 12242.08 GFP+-cells/confluence ∙ 1000
[9]; 0.3 µM, 12 h
  Mean NFκB response: 21999.86 GFP+-cells/confluence ∙ 1000
[9]; 0.3 µM, 15 h
  Mean NFκB response: 29772.36 GFP+-cells/confluence ∙ 1000
[9]; 0.3 µM, 18 h
  Mean NFκB response: 34990.00 GFP+-cells/confluence ∙ 1000
[9]; 0.3 µM, 21 h
  Mean NFκB response: 39166.67 GFP+-cells/confluence ∙ 1000
[9]; 0.3 µM, 24 h
  Mean NFκB response: 41696.67 GFP+-cells/confluence ∙ 1000
[10]
  Mean ΔTM CSNK1D: -0.11 K
[11]
  Mean ΔTM FGFR3: -0.32 K
[12]
  Mean ΔTM BRD4: -1.17 K
[13]
  Mean ΔTM TRIM24: -0.75 K
[14]
  Mean ΔTM MAPK1: 0.18 K
[15]
  Metabolic activity [MA]: 0.94 and 1.01 and 0.93 and 1.08
[16]
  Mean ΔTM ABL1: -0.24 K
[17]
  Necrosis induction [NI]: 0.91 (2×) and 1.04 and 0.81
[18]; of DHT (dihydrotestosterone)
  rel. activity from literature, NR3C4 (AR): % of DHT: 159 ± 10%
[18]; read-out: Potency [nM] IC50, NR3C4 (AR), (lit.)
  IC50: 6 ± 1 nM
[19]
  Mean ΔTM GSK3B: -0.99 K
[20]
  Apoptosis induction [AI]: 0.76 and 0.77 and 1.07 and 0.74 (2×) and 0.88
